“Also recorded” adds a separate entry of the source. Non-standard residues stand in square brackets, D forms with d. Residues, ends and D or L forms follow the SMILES beside them. *: point of attachment. Lauroyl = CCCCCCCCCCCC(=O)*; NH(CH2)4NH2 = NCCCCN*
How the values were obtained:
[1] = test system: S. brevitalea DSM 7029 wild type; assay: Biofilm formation of DSM 7029 wild type with compounds (crystal violet); format: cell-based, Schlegelella brevitalea DSM 7029
Procedure, shortened: (§1)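 CYMG medium inoculated 1:100 from overnight culture with compounds at 0.1 μg/μL; OD600 read hourly for 42 h with shaking. Biofilm quantified at 18 h and 36 h by 0.1% crystal violet staining, 95% ethanol elution, OD600. Pigment secretion measured as OD600 of cell-free supernatant.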

[2] = test system: S. brevitalea DSM 7029 wild type; assay: Growth curve of DSM 7029 wild type with compounds (Bioscreen C); format: cell-based, Schlegelella brevitalea DSM 7029; settings: CYMG medium
Procedure, shortened: as §1

tumor lines = assay: MTT cytotoxicity assay, statements on the whole panel; format: cell-based, human; settings: MTT assay, panel of tumor cell lines
Procedure, shortened: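 An MTT-based assay, run as in prior work, gives compound cytotoxicity here. The tested lines undergo routine authentication through morphology and gene/protein expression checks.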

HepG2 cells = assay: Extracellular and intracellular compound in HepG2 cells (LC-MS); format: in vitro ADME, human; settings: 3 h
Method: Comparing the concentration of compounds (7, 10, 10a) in extracellular and intracellular after the HepG2 cell line dealt with compounds. HepG2 cells were plated in six-well plates at a density of 1.5 × 10^5 cells/well and grew overnight. After cell treated with compounds (5 μg/mL) for 3 h, the compounds were extracted with MeOH for cells culture medium and cells separately as followed the reported method. The compounds were quantified by LC‒MS (5%‒95% ACN in 15 min). The cell numbers of HepG2 with the compounds treatments was determined. […]
To determine whether the difference in bioactivity of products (with or without Put moiety) is due to variations in cellular uptake, we treated hepatoma cell line HepG2 with compounds 7 (C12 acyl), 10 (C14 acyl), and 10a (C14 acyl and without Put) (Supplementary Fig. 33c). The cells were treated for 3 h, and then culture medium and cells were extracted separately. LC-MS was used to detect and quantify the compounds.
At lower concentrations (5000 ng/mL, and 10,000 ng in total for each group), and […]
may be contributing to the differences in antitumor activity (Supplementary Fig. 33b).
This could be due to differences in the speed of cellu lar uptake or differences in drug metabolism rate, requiring further experimental investigation.

[3] = relative to wild type treated with H2O = 100%, crystal violet 0.1%, OD600, mean of n = 3

Compound: CCCCCCCCCCCC(=O)N[C@H](CCSC)C(=O)N[C@H](CC(N)=O)C(=O)N1CCC[C@H]1C(=O)N[C@H](C(=O)N[C@H](Cc1ccccc1)C(=O)N1CCC[C@H]1C(=O)N[C@@H](Cc1c[nH]c2ccccc12)C(=O)N[C@@H](C(=O)N[C@@H](C)C(=O)N[C@H](C)C(=O)N[C@@H](CO)C(=O)N[C@@H](C)C(=O)NCCCCN)C(C)C)C(C)C [Compound 7, Glidonin G] (Lauroyl-[dM][dN]PV[dF]PW[dV]A[dA]SA-{NH(CH2)4NH2})
- effect on biofilm formation of DSM 7029 wild type in words ([1]; crystal violet staining): increased biofilm formation
- biofilm formation 18 h, Average [1, 3]: 152.732%
- biofilm formation 36 h, Average [1, 3]: 138.926%
- effect on growth of DSM 7029 wild type in words ([2]; compound 0.1 μg/μL, OD600 every hour for 42 h, Bioscreen C): weak inhibition of growth; also recorded: obviously inhibit the growth
- OD600 of wild type DSM 7029 with addition of compounds ([2]; control OD600 0.6): 0.4
- cytotoxic / antitumor activity in words (tumor lines): broad-spectrum cytotoxicity
- total quantities (intracellular plus extracellular) in words (HepG2 cells; HepG2, 5000 ng/mL, compared to 10a): lower total quantities
- Intracellular compound, Average (HepG2 cells; HepG2, six-well plates, 5 μg/mL (10,000 ng in total), cells extracted with MeOH, mean of n = 3): 13.4894 ng
- Extracellular compound, Average (HepG2 cells; HepG2, six-well plates, 5 μg/mL (10,000 ng in total), culture medium extracted with MeOH, mean of n = 3): 2764.81 ng

Source: paper PMC10587159, “Biosynthesis and engineering of the nonribosomal peptides with a C-terminal putrescine” (Nature Communications, 2023)
